Test results reported in ChEMBL document CHEMBL1201862, “PubChem BioAssay data set” (2004).
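Values below derive from 48-hour exposures of cells grown in 96-well plates, with endpoints linearly interpolated between the two concentrations bracketing the appropriate inhibition level. GI50 = concentration required for 50% inhibition of growth.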 The source made the active and inactive calls. Cut-off read from the data, not from the text of the source: active = GI50 up to about 1.1 µM and inactive = higher.

How the values were obtained:
Experiment in all cases: growth of human tumour cells (NCI), 48 h
ACHN = system: ACHN
HOP-92 = system: HOP-92
HT-29 = system: HT-29
Hs-578T = system: Hs-578T
NCI-H226 = system: NCI-H226
NCI-H23 = system: NCI-H23
NCI-H522 = system: NCI-H522
OVCAR-5 = system: OVCAR-5
OVCAR-8 = system: OVCAR-8
PC-3 = system: PC-3
SF-268 = system: SF-268
SF-539 = system: SF-539
SK-MEL-28 = system: SK-MEL-28
SK-MEL-5 = system: SK-MEL-5
SW-620 = system: SW-620
U-251 = system: U-251
UACC-257 = system: UACC-257
UACC-62 = system: UACC-62
MCF7 = system: MCF7
UO-31 = system: UO-31

Measured: GI50

CCOC(=O)/C(C#N)=C/c1ccnc2ccccc12
inactive: ACHN > 100 µM | HOP-92 40.2 µM | HT-29 > 100 µM | Hs-578T > 100 µM | NCI-H226 > 100 µM | NCI-H23 31.8 µM | NCI-H522 > 100 µM | OVCAR-5 > 100 µM | OVCAR-8 10.4 µM | PC-3 36.9 µM | SF-268 > 100 µM | SF-539 20.2 µM | SK-MEL-28 88.5 µM | SK-MEL-5 31.7 µM | SW-620 9.79 µM | U-251 > 100 µM | UACC-257 > 100 µM | UACC-62 > 100 µM

Cc1ccc(/N=N/C(=N/NC(=O)c2ccccc2)c2ccc(N(CCC#N)CCC#N)cc2C)cc1
inactive: ACHN > 100 µM | HT-29 19 µM | Hs-578T 13 µM | MCF7 21.3 µM | NCI-H226 44 µM | NCI-H23 52.6 µM | NCI-H522 15.5 µM | OVCAR-5 > 100 µM | OVCAR-8 39.4 µM | PC-3 26.7 µM | SF-268 41.9 µM | SF-539 19.3 µM | SK-MEL-5 13.4 µM | U-251 52.6 µM | UACC-257 55 µM | UACC-62 31 µM | UO-31 > 100 µM

CCN(CC)CCN(C(=O)C(C)(C)C)c1ccccc1N
inactive: ACHN > 100 µM | HOP-92 > 100 µM | HT-29 > 100 µM | MCF7 > 100 µM | NCI-H226 > 100 µM | NCI-H23 > 100 µM | NCI-H522 > 100 µM | OVCAR-5 > 100 µM | OVCAR-8 > 100 µM | PC-3 > 100 µM | SF-268 > 100 µM | SF-539 > 100 µM | SK-MEL-28 > 100 µM | SK-MEL-5 > 100 µM | SW-620 > 100 µM | U-251 > 100 µM | UACC-257 > 100 µM | UACC-62 > 100 µM | UO-31 > 100 µM

CCOC(=O)c1c(NC(=O)c2ccccc2)sc2c1CCCC2
inactive: ACHN > 100 µM | HT-29 > 100 µM | Hs-578T > 100 µM | MCF7 > 100 µM | NCI-H226 > 100 µM | NCI-H23 > 100 µM | OVCAR-5 > 100 µM | OVCAR-8 > 100 µM | PC-3 > 100 µM | SF-268 > 100 µM | SF-539 > 100 µM | SK-MEL-28 > 100 µM | SK-MEL-5 > 100 µM | SW-620 > 100 µM | U-251 > 100 µM | UACC-257 > 100 µM | UACC-62 > 100 µM | UO-31 > 100 µM

COc1cccc(Nc2nc3c([nH]2)c(=O)n(C)c(=O)n3C)c1
inactive: HOP-92 > 10 µM | HT-29 > 10 µM | MCF7 > 10 µM | NCI-H23 > 10 µM | OVCAR-8 > 10 µM | PC-3 > 10 µM | SF-268 > 10 µM | SK-MEL-28 > 10 µM | SK-MEL-5 > 10 µM | SW-620 > 10 µM | UACC-257 > 10 µM | UACC-62 > 10 µM

O=C(Nc1ccc(Cl)cc1)NS(=O)(=O)c1c(-c2ccccc2)oc2ccccc2c1=O
inactive: ACHN 27.1 µM | HOP-92 89.3 µM | HT-29 57.8 µM | Hs-578T > 100 µM | NCI-H226 > 100 µM | NCI-H23 67 µM | NCI-H522 1.97 µM | OVCAR-5 > 100 µM | OVCAR-8 59.3 µM | PC-3 56.8 µM | SF-268 > 100 µM | SF-539 47.9 µM | SK-MEL-28 > 100 µM | SK-MEL-5 > 100 µM | SW-620 > 100 µM | U-251 58.2 µM | UACC-257 > 100 µM | UACC-62 1.97 µM | UO-31 38.5 µM

CN(C)Nc1cc(=O)[nH]c(=O)[nH]1
inactive: ACHN > 100 µM | HOP-92 > 100 µM | HT-29 > 100 µM | MCF7 > 100 µM | NCI-H226 > 100 µM | OVCAR-5 > 100 µM | OVCAR-8 > 100 µM | PC-3 > 100 µM | SF-268 > 100 µM | SF-539 > 100 µM | SK-MEL-28 > 100 µM | SK-MEL-5 > 100 µM | SW-620 > 100 µM | U-251 > 100 µM | UACC-257 > 100 µM | UO-31 > 100 µM

CCOC(=O)C1(C(=O)OCC)CN(CC)CN(c2ccccc2)C1
inactive: ACHN 19.9 µM | HOP-92 16.5 µM | HT-29 17.8 µM | Hs-578T > 100 µM | MCF7 18.5 µM | NCI-H23 18.4 µM | NCI-H522 29.3 µM | OVCAR-5 19.2 µM | OVCAR-8 21.5 µM | SF-268 69.2 µM | SF-539 21.5 µM | SK-MEL-28 18.7 µM | SK-MEL-5 34.8 µM | SW-620 30.6 µM | UACC-257 17.2 µM | UACC-62 26.5 µM | UO-31 28 µM

C=CCCC1CCCCNC1=S (stereo unspecified)
inactive: ACHN > 10 µM | HT-29 > 10 µM | Hs-578T > 10 µM | MCF7 > 10 µM | NCI-H226 > 10 µM | NCI-H23 > 10 µM | OVCAR-5 > 10 µM | OVCAR-8 > 10 µM | PC-3 > 10 µM | SF-268 > 10 µM | SF-539 > 10 µM | SK-MEL-28 > 10 µM | SK-MEL-5 > 10 µM | SW-620 > 10 µM | U-251 > 10 µM | UACC-257 > 10 µM | UACC-62 > 10 µM | UO-31 > 10 µM

O=c1[nH]c(=O)n(C2CC(O)C(CO)O2)cc1OC/C=C/Cc1ccccc1 (stereo unspecified)
inactive: ACHN > 100 µM | HT-29 > 100 µM | Hs-578T > 100 µM | MCF7 > 100 µM | NCI-H226 > 100 µM | NCI-H23 > 100 µM | NCI-H522 > 100 µM | OVCAR-5 > 100 µM | OVCAR-8 > 100 µM | PC-3 > 100 µM | SF-268 > 100 µM | SK-MEL-28 > 100 µM | SK-MEL-5 > 100 µM | U-251 > 100 µM | UACC-257 > 100 µM | UACC-62 > 100 µM | UO-31 > 100 µM

N#CC(=N)c1ncn(-c2ccc(N)cc2)c1N
inactive: ACHN > 100 µM | HT-29 > 100 µM | Hs-578T > 100 µM | MCF7 > 100 µM | NCI-H226 > 100 µM | NCI-H23 > 100 µM | NCI-H522 > 100 µM | OVCAR-5 > 100 µM | OVCAR-8 > 100 µM | PC-3 > 100 µM | SF-268 > 100 µM | SF-539 > 100 µM | SK-MEL-28 > 100 µM | SK-MEL-5 > 100 µM | SW-620 > 100 µM | U-251 > 100 µM | UACC-257 > 100 µM | UACC-62 > 100 µM | UO-31 > 100 µM

COC(=O)c1cc(-c2c[nH]cc2C(=O)OCc2ccccc2)cn1S(=O)(=O)c1ccc(C)cc1
inactive: ACHN > 100 µM | HT-29 > 100 µM | Hs-578T > 100 µM | MCF7 22.3 µM | NCI-H23 6.61 µM | NCI-H522 > 100 µM | OVCAR-5 > 100 µM | OVCAR-8 > 100 µM | PC-3 36.7 µM | SF-268 > 100 µM | SF-539 > 100 µM | SK-MEL-5 4.16 µM | U-251 > 10 µM | UACC-257 7.93 µM | UACC-62 > 100 µM | UO-31 > 100 µM
